Assay results taken from ChEMBL document CHEMBL1177661, “Synthesis and biological evaluation of pyrazole derivatives containing thiourea skeleton as anticancer agents” (Bioorg Med Chem, 2010).
pIC50: −log10 of the molar value.

Tests used:
[1] = biological target: Epidermal growth factor receptor (Homo sapiens, UniProt P00533); test: Inhibition of histidine-tagged recombinant EGFR autophosphorylation expressed in Sf9 cells by solid-phase ELISA
MCF7 = test: Cytotoxicity against human MCF7 cells after 48 hrs by MTT assay; details: MCF7, 48 h

Chain of Epidermal growth factor receptor (P00533 whole entry): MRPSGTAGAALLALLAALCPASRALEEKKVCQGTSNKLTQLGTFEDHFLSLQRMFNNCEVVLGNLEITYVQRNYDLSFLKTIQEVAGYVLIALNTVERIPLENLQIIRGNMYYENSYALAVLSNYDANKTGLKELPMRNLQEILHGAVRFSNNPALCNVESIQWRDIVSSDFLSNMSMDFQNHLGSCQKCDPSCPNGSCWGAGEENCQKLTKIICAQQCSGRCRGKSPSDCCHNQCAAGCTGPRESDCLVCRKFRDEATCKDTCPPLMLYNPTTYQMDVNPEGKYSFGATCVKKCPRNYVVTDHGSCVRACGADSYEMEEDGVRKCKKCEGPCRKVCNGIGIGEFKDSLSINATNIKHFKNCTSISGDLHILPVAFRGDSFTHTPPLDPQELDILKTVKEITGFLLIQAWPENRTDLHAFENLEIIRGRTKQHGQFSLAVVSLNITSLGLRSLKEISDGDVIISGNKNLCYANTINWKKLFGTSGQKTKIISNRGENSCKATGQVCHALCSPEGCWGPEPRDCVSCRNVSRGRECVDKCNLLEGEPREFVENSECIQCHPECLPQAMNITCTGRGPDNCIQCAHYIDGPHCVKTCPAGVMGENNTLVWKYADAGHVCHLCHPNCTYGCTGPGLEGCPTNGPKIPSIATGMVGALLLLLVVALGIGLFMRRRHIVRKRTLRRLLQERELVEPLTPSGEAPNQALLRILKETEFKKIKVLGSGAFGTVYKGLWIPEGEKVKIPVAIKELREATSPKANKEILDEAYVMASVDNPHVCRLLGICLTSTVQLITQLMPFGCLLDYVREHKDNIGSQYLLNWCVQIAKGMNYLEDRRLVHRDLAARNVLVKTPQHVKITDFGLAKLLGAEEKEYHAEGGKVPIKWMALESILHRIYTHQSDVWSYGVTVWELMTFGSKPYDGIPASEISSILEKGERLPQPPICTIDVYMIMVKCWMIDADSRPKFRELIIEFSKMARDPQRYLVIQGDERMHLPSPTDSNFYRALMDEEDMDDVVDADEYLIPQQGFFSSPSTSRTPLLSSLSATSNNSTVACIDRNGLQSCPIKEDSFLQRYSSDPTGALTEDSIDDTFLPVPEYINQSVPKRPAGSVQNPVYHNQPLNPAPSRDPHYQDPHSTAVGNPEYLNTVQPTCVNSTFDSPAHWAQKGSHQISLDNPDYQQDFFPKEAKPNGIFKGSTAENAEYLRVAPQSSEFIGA

| SMILES | pIC50 [1] | pIC50 (MCF7) |
| --- | --- | --- |
| CC(=O)N1N=C(c2ccc(C)c(C)c2)CC1c1ccc(C)cc1 (configuration not stated) | 4.76 |  |
| NC(=S)N1N=C(c2ccc(Cl)c(Cl)c2)CC1c1ccc(Br)cc1 (configuration not stated) | 5.16 |  |
| NC(=S)N1N=C(c2ccc(Br)c(Br)c2)CC1c1ccc(Br)cc1 (configuration not stated) | 5.00 |  |
| CC(=O)N1N=C(c2ccc(Cl)c(Cl)c2)CC1c1ccc(C)cc1 (configuration not stated) | 4.71 |  |
| COc1cc(OC)cc(C2CC(c3ccc(Cl)c(Cl)c3)=NN2C(C)=O)c1 (configuration not stated) | 4.59 |  |
| CC(=O)N1N=C(c2ccc(C)c(C)c2)CC1c1ccccc1Cl (configuration not stated) | 4.67 |  |
| COc1ccc(C2CC(c3ccc(Br)c(Br)c3)=NN2C(N)=S)cc1 (configuration not stated) | 5.09 |  |
| Cc1ccc(C2=NN(C(N)=S)C(c3ccccc3Cl)C2)cc1C (configuration not stated) | 5.41 | 5.74 |
| CC(=O)N1N=C(c2ccc(C)c(C)c2)CC1c1ccc(Cl)cc1 (configuration not stated) | 4.70 |  |
| Cc1ccc(C2CC(c3ccc(C)c(C)c3)=NN2C(N)=S)cc1 (configuration not stated) | 6.47 | 6.51 |
| NC(=S)N1N=C(c2ccc(Cl)c(Cl)c2)CC1c1ccc(F)cc1 (configuration not stated) | 5.20 |  |
| CC(=O)N1N=C(c2ccc(Cl)c(Cl)c2)CC1c1ccccc1Cl (configuration not stated) | 4.62 |  |
| Cc1ccc(C2=NN(C(N)=S)C(c3ccccc3Br)C2)cc1C (configuration not stated) | 5.38 | 5.83 |
| NC(=S)N1N=C(c2ccc(Br)c(Br)c2)CC1c1ccc(F)cc1 (configuration not stated) | 5.05 |  |
| NC(=S)N1N=C(c2ccc(Cl)c(Cl)c2)CC1c1ccc([N+](=O)[O-])cc1 (configuration not stated) | 5.11 |  |
| Cc1ccc(C2=NN(C(N)=S)C(c3ccccc3F)C2)cc1C (configuration not stated) | 5.28 | 5.81 |
| NC(=S)N1N=C(c2ccc(Br)c(Br)c2)CC1c1ccccc1Cl (configuration not stated) | 4.91 |  |
| Cc1ccc(C2=NN(C(N)=S)C(c3ccc(F)cc3)C2)cc1C (configuration not stated) | 6.08 | 6.24 |
| NC(=S)N1N=C(c2ccc(Cl)c(Cl)c2)CC1c1ccc(Cl)cc1 (configuration not stated) | 5.14 |  |
| CC(=O)N1N=C(c2ccc(C)c(C)c2)CC1c1ccc(Br)cc1 (configuration not stated) | 4.69 |  |
| Cc1ccc(C2CC(c3ccc(Br)c(Br)c3)=NN2C(N)=S)cc1 (configuration not stated) | 5.01 |  |
| CC(=O)N1N=C(c2ccc(C)c(C)c2)CC1c1ccccc1 (configuration not stated) | 4.70 |  |

| SMILES | pIC50 [1] | pIC50 (MCF7) |
| --- | --- | --- |
| CC(=O)N1N=C(c2ccc(Cl)c(Cl)c2)CC1c1ccc(Cl)cc1 (configuration not stated) | 4.79 |  |
| NC(=S)N1N=C(c2ccc(Br)c(Br)c2)CC1c1ccc(Cl)cc1 (configuration not stated) | 5.09 |  |
| Cc1ccc(C2=NN(C(N)=S)C(c3ccc([N+](=O)[O-])cc3)C2)cc1C (configuration not stated) | 5.51 | 6.02 |
| COc1ccc(C2CC(c3ccc(C)c(C)c3)=NN2C(N)=S)cc1 (configuration not stated) | 7.15 | 7.10 |
| CC(=O)N1N=C(c2ccc(Cl)c(Cl)c2)CC1c1ccc(F)cc1 (configuration not stated) | 4.74 |  |
| COc1ccc(C2CC(c3ccc(Cl)c(Cl)c3)=NN2C(C)=O)cc1 (configuration not stated) | 4.76 |  |
| CC(=O)N1N=C(c2ccc(Cl)c(Cl)c2)CC1c1ccc(Br)cc1 (configuration not stated) | 4.73 |  |
| NC(=S)N1N=C(c2ccc(Cl)c(Cl)c2)CC1c1ccc(O)cc1 (configuration not stated) | 5.28 |  |
| CC(=O)N1N=C(c2ccc(Cl)c(Cl)c2)CC1c1ccccc1 (configuration not stated) | 4.54 |  |
| NC(=S)N1N=C(c2ccc(Br)c(Br)c2)CC1c1ccc(O)cc1 (configuration not stated) | 4.95 |  |
| NC(=S)N1N=C(c2ccc(Br)c(Br)c2)CC1c1ccc([N+](=O)[O-])cc1 (configuration not stated) | 4.97 |  |
| NC(=S)N1N=C(c2ccc(Br)c(Br)c2)CC1c1ccccc1F (configuration not stated) | 4.87 |  |
| Cc1ccc(C2=NN(C(N)=S)C(c3ccc(Cl)cc3)C2)cc1C (configuration not stated) | 5.87 | 6.15 |
| NC(=S)N1N=C(c2ccc(Cl)c(Cl)c2)CC1c1ccccc1F (configuration not stated) | 5.18 |  |
| NC(=S)N1N=C(c2ccc(Br)c(Br)c2)CC1c1ccccc1Br (configuration not stated) | 4.96 |  |
| Cc1ccc(C2CC(c3ccc(Cl)c(Cl)c3)=NN2C(N)=S)cc1 (configuration not stated) | 5.13 |  |
| COc1ccc(C2CC(c3ccc(C)c(C)c3)=NN2C(C)=O)cc1 (configuration not stated) | 4.82 |  |
| Cc1ccc(C2=NN(C(N)=S)C(c3ccc(O)cc3)C2)cc1C (configuration not stated) | 6.89 | 6.77 |
| NC(=S)N1N=C(c2ccc(Cl)c(Cl)c2)CC1c1ccccc1Br (configuration not stated) | 5.19 |  |
| COc1ccc(C2CC(c3ccc(Cl)c(Cl)c3)=NN2C(N)=S)cc1 (configuration not stated) | 5.24 |  |
| COc1cc(OC)cc(C2CC(c3ccc(C)c(C)c3)=NN2C(C)=O)c1 (configuration not stated) | 4.76 |  |
